{"source": "patent US5340829A", "about": "“Immunoregulatory agents” (priority 1992, dated 1994)", "key": {"[1]": {"test_system": "anti-PHI.X 174 bacteriophage antibodies", "assay": "Phage inhibition assay of serum antibody after immunization with bacteriophage PHI.X 174 (Experiment 7)", "assay_type": "in vivo, mice", "settings": "sorbinil daily for five days", "excerpt": "Antibodies generated against the bacteriophage were quantitated by a phage inhibition assay, which is based on the observation that antibodies specific for the bacteriophage will inhibit the ability of the bacteriophage to lyse bacteria. Ochs, H. D., et al., Disorders of the B-cell system, in Immunologic Disorders in Infants and Children, E. R. Stiehm, et al., eds., W. B. Sanders, Co. Philadelphia, p. 239, 1980. The data was expressed as Kv values derived according to the following formula: Rate of phage inactivation, Kv D/T×1n Po/P, where D=reciprocal of antibody dilution, T=60 minutes, Po=initial number of PFU, and P=number of plaques at 60 minutes.\nBeginning with one week after this primary immunization mice were bled weekly, and serum samples from individual mice were tested for the ability to inhibit bacteriophage lysis of bacteria."}, "Mouse P338D cells": {"test_system": "Mouse P338D cells", "assay": "Release of 3H-arachidonic acid metabolites, A23187-stimulated cells (Experiment 9)", "assay_type": "cell-based", "settings": "10^-6 M/L sorbinil; stimulated by A23187", "excerpt": "The assay protocol was as described generally in Henderson, W. R., and S. J. Klebanoff, J. Biol. Chem. 258: 13522-13527, 1983, which is hereby incorporated by reference."}, "[2]": {"test_system": "swelling of popliteal lymph nodes", "assay": "Popliteal lymph node assay (Experiment 20)", "assay_type": "in vivo", "settings": "Balb C mice injected in the foot pad with cells from C57BL6 mice", "description": "In vivo, popliteal lymph node assays were conducted on normal Balb C mice."}, "[3]": {"test_system": "ear swelling in response to PMA", "assay": "Ear swelling in response to PMA (Experiment 21)", "settings": "in vivo"}, "[4]": {"test_system": "ear swelling produced by topical application of arachidonic acid", "assay": "Ear swelling produced by topical arachidonic acid (Experiment 22)", "assay_type": "in vivo, mice"}, "[5]": {"test_system": "delayed-type hypersensitivity (DTH)", "assay": "DTH ear swelling, comparison of sorbinil, tolrestat, WF-3681 and NSAIDs (Experiment 23, TABLE 5)", "assay_type": "in vivo, mice", "description": "Delayed type hypersensitivity, which involves the participation of T lymphocytes and macrophages, can be studied in vivo by exposing (or priming) a mammal to a novel antigen and then reexposing (or challenging) the primed animal to the same antigen four to seven days later. The classic DTH response includes symptoms of inflammatory response, induration and erythema, which peak at 24 to 48 hours after challenging and then decline slowly.\nEight-week old female C57BL/6J mice (Jackson Labs) were divided into primed and unprimed groups. The five mice in the primed group were primed to 2,4-dinitrofluorobenzene (DNFB; Sigma Chemical Co., Grade 1, approx. 98%, Lot 129C-0065, No. d-6879) by painting their shaved ventral skins with 0.1 ml of 0.5% DNFB in ethanol:acetone (3:1). The five mice in the unprimed group were shaved and topically painted on their ventral skins with the ethanol:acetone (3:1) vehicle alone. The mice in both groups were challenged with DNFB four days later. A suitable patch of skin, the ear, was chosen for challenging. One ear was designated for challenging and the other to serve as a control. The thickness of each ear across the pinna was measured using micrometer calipers. The first measurements were taken four days after priming and are plotted as day 0 in FIG. 13. Next, each mouse was subjected to the following challenge regimen: one ear was challenged with one drop of 0.35% DNFB in olive oil, and the other (unchallenged control) ear was exposed to olive oil alone. The ear thicknesses (ET) of the challenged ear and the unchallenged ear were measured daily, and the swelling responses are plotted in FIG. 13 as: [formula]\nThree groups of eight-week old female C57BL/6J mice were primed to DNFB as previously described. […] Six hours later the first sets of ear measurements were taken, and one ear of each mouse was challenged.\nThe Table has 4 columns, listing (left to right) each drug tested in column 1, drug concentrations in column 2, relative swelling in column 3, and effectiveness in column 4."}}, "note": "Entries after “also recorded” stand apart in the source; their conditions may differ.", "data": [{"smiles": "O=C1NC(=O)[C@@]2(CCOc3ccc(F)cc32)N1", "note": "[Sorbinil, 4(S)-2,3-dihydro-6-fluorospiro-(4H-1-benzopyran-4,4'-imidazolidine)-2',5'-dione]", "values": [{"measurement": "Kv, rate of phage inactivation (serum titer of anti-PHI.X 174 antibodies)", "setting": "[1]; one week after priming", "value": "5.0±2.4"}, {"measurement": "Kv, rate of phage inactivation (serum titer of anti-PHI.X 174 antibodies)", "setting": "[1]; two weeks after primary immunization", "value": "18.4±11.4"}, {"measurement": "Release of arachidonic acid metabolites", "setting": "Mouse P338D cells", "value": "no effect"}, {"measurement": "Swelling of popliteal lymph nodes", "setting": "[2]", "value": "no effect"}, {"measurement": "Swelling of mouse ears in response to PMA", "setting": "[3]", "value": "no effect"}, {"measurement": "Ear swelling produced by topical arachidonic acid", "setting": "[4]; oral administration", "value": "no effect"}, {"measurement": "Ear swelling produced by topical arachidonic acid", "setting": "[4]; topical administration", "value": "no effect"}, {"measurement": "effectiveness (1 - R) (100%)", "setting": "[5]; 6 μM, single dose after challenge", "value": 39, "unit": "%"}, {"measurement": "effectiveness (1 - R) (100%)", "setting": "[5]; 6 μM, single dose before challenge", "value": 32, "unit": "%"}, {"measurement": "effectiveness (1 - R) (100%)", "setting": "[5]; concentration 6 μM", "value": 34, "unit": "%"}, {"measurement": "effectiveness (1 - R) (100%)", "setting": "[5]; concentration 6 μM, listed as sorbinil", "value": "about 30%"}, {"measurement": "effectiveness (1 - R) (100%)", "setting": "[5]; concentration 10 μM", "value": 70, "unit": "%"}, {"measurement": "Effect on DTH as measured by ear swelling (in words)", "setting": "[5]; mouse, in vivo", "value": "strong and substantially identical inhibitory effect; also recorded: effective, as a single dose, when administered either before or after the antigenic challenge"}]}]}
